Values joined by “and” are separate entries in the source; they are usually repeats but may differ in a detail not shown here. Identical values can stand only once.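 Exposure lasted 48 hours, with cells grown in 96-well plates and compounds tested at five concentrations. GI50 = concentration required for 50% inhibition of growth. TGI: total growth inhibition.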
Columns and labels:
Experiment in all cases: DTP human tumour cell line panel, 48 h
[1] = test system: HOP-18 NSCLC
[2] = test system: SN12C renal
[3] = test system: SF-539 CNS
[4] = test system: SNB-75 CNS
[5] = test system: SW-620 colon
[6] = test system: 786-0 renal
[7] = test system: HCT-116 colon
[8] = test system: NCI-H226 lung
[9] = test system: HT29 colon
[10] = test system: UACC-62 melanoma
[11] = test system: UACC-257 melanoma
[12] = test system: EKVX NSCLC
[13] = test system: SK-MEL-2 melanoma
[14] = test system: HOP-62 NSCLC
[15] = test system: SF-268 CNS
[16] = test system: LOX IMVI melanoma
[17] = test system: SNB-19 CNS
[18] = test system: TK-10 renal
[19] = test system: NCI-H23 lung
[20] = test system: IGROV1 ovarian
[21] = test system: OVCAR-8 ovarian
[22] = test system: OVCAR-4 ovarian
[23] = test system: DLD-1 colon
[24] = test system: RXF-631 renal
[25] = test system: COLO 205 colon
[26] = test system: CCRF-CEM leukemia
[27] = test system: HOP-92 NSCLC
[28] = test system: RPMI-8226 leukemia
[29] = test system: DMS 114 small cell lung
[30] = test system: U251 CNS
[31] = test system: SK-OV-3 ovarian
[32] = test system: LXFL 529 NSCLC
[33] = test system: KM12 colon
[34] = test system: KM20L2 colon
[35] = test system: A549 NSCLC
[36] = test system: NCI-H522 lung
[37] = test system: NCI-H460 lung
[38] = test system: SR leukemia
[39] = test system: RXF 393 renal
[40] = test system: MOLT-4 leukemia
[41] = test system: M14 melanoma
[42] = test system: SK-MEL-28 melanoma
[43] = test system: SNB-78 CNS
[44] = test system: DMS 273 small cell lung
[45] = test system: SK-MEL-5 melanoma
[46] = test system: OVCAR-5 ovarian
[47] = test system: UO-31 renal
[48] = test system: SF-295 CNS
[49] = test system: HL-60(TB) leukemia
[50] = test system: CAKI-1 renal
[51] = test system: K-562 leukemia
[52] = test system: ACHN renal
[53] = test system: HCC-2998 colon
[54] = test system: OVCAR-3 ovarian
[55] = test system: HS 578T breast
[56] = test system: XF 498 CNS
[57] = test system: T-47D breast
[58] = test system: MDA-MB-435
[59] = test system: PC-3 prostate
[60] = test system: MALME-3M melanoma
[61] = test system: MCF7 breast
[62] = test system: DU-145 prostate
[63] = test system: A498 renal
[64] = test system: M19-MEL melanoma
[65] = test system: MDA-MB-231 breast
[66] = test system: NCI/ADR-RES ovarian
[67] = test system: BT-549 breast
[68] = test system: HCT-15 colon
[69] = test system: MDA-N

Brc1ccc(-c2nnc(-c3nn(-c4ccccc4)c4nc5ccccc5nc34)o2)cc1
TGI [1]: > 100 µM | TGI [2]: > 100 µM | TGI [3]: > 100 µM | TGI [4]: > 100 µM | TGI [5]: > 100 µM | TGI [6]: > 100 µM | TGI [7]: > 100 µM | TGI [8]: > 100 µM | TGI [9]: > 100 µM | TGI [10]: > 100 µM | TGI [11]: > 100 µM | TGI [12]: > 100 µM | TGI [13]: > 100 µM | TGI [14]: > 100 µM | TGI [15]: > 100 µM | TGI [16]: > 100 µM | TGI [17]: > 100 µM | TGI [18]: > 100 µM | TGI [19]: > 100 µM | TGI [20]: > 100 µM | TGI [21]: > 100 µM | TGI [22]: > 100 µM | TGI [23]: > 100 µM | TGI [24]: > 100 µM | TGI [25]: > 100 µM | TGI [26]: > 100 µM | TGI [27]: > 100 µM | TGI [28]: > 100 µM | TGI [29]: > 100 µM | TGI [30]: > 100 µM | TGI [31]: > 100 µM | TGI [32]: > 100 µM | TGI [33]: > 100 µM | TGI [34]: > 100 µM | TGI [35]: > 100 µM | TGI [36]: > 100 µM | TGI [37]: > 100 µM | TGI [38]: > 100 µM | TGI [39]: > 100 µM | TGI [40]: > 100 µM | TGI [41]: > 100 µM | TGI [42]: > 100 µM | TGI [43]: > 100 µM | TGI [44]: > 100 µM | TGI [45]: 84.5 µM | TGI [46]: > 100 µM | TGI [47]: > 100 µM | TGI [48]: > 100 µM | TGI [49]: > 100 µM | TGI [50]: > 100 µM | TGI [51]: > 100 µM | TGI [52]: > 100 µM | TGI [53]: > 100 µM | TGI [54]: > 100 µM

O=C1C(CN2CCCCC2)CCCC1CN1CCCCC1 (centres undefined)
TGI [55]: 72.3 µM | TGI [1]: 28.5 µM and 30.9 µM | TGI [2]: > 31.6 µM and 48.7 µM | TGI [3]: > 57.5 µM and 47.8 µM | GI50 [4]: > 100 µM and 46.2 µM | TGI [4]: > 100 µM | TGI [5]: 24.6 µM and 13.7 µM | TGI [6]: 22.3 µM and 15 µM | TGI [7]: 27.6 µM and 29 µM | TGI [56]: 33.4 µM and 39.8 µM | TGI [8]: > 100 µM | TGI [9]: 34.2 µM and 40.8 µM | TGI [10]: > 67.9 µM | TGI [11]: 57.9 µM and 31.7 µM | TGI [12]: 38 µM and 39.8 µM | GI50 [13]: > 83.2 µM and 31.9 µM | TGI [13]: > 100 µM and 48.4 µM | TGI [14]: > 100 µM | GI50 [15]: > 89.2 µM | TGI [15]: > 100 µM | TGI [16]: > 57.2 µM | TGI [17]: > 100 µM | GI50 [18]: > 100 µM and 12.4 µM | TGI [18]: > 100 µM and 28.4 µM | TGI [57]: 3.74 µM | TGI [58]: 30.9 µM | TGI [19]: > 68.4 µM and 55.8 µM | TGI [20]: > 100 µM | TGI [59]: 29.8 µM | TGI [21]: 21 µM and 39.3 µM | TGI [60]: 11.4 µM and 14.8 µM | TGI [61]: 7.87 µM | TGI [22]: 22.2 µM | TGI [23]: 31.5 µM and 32 µM | GI50 [62]: 0.059 µM | TGI [62]: 32.2 µM | GI50 [25]: 25.5 µM and 8.41 µM | TGI [25]: > 56.9 µM and 16.1 µM | GI50 [26]: 4.86 µM and 2.41 µM | TGI [26]: 20.6 µM and > 22.6 µM | TGI [63]: > 100 µM | GI50 [27]: 7.52 µM and 2.89 µM | TGI [27]: 18.4 µM and 5.93 µM | TGI [28]: 13.1 µM | GI50 [29]: 7.38 µM and 27.4 µM | TGI [29]: 18.7 µM and 79.4 µM | TGI [30]: > 100 µM | GI50 [64]: > 43 µM and 19.8 µM | TGI [64]: > 57.1 µM and 36.7 µM | TGI [31]: > 100 µM | TGI [32]: 29.3 µM and 28.9 µM | TGI [33]: > 100 µM | TGI [34]: 17.8 µM and 22.8 µM | TGI [65]: 34.7 µM | TGI [35]: > 100 µM | TGI [66]: 55.9 µM | GI50 [37]: > 100 µM | TGI [37]: > 100 µM | TGI [38]: 43.9 µM and 47.2 µM | TGI [39]: 31.6 µM | GI50 [40]: 10.9 µM and 4.27 µM | TGI [40]: > 65.6 µM and 12 µM | TGI [41]: > 52.2 µM and 39.5 µM | TGI [42]: 18.4 µM and 31.7 µM | TGI [43]: 47.6 µM and 44.8 µM | TGI [44]: > 100 µM | TGI [45]: > 31.6 µM and 47.6 µM | TGI [46]: > 100 µM | TGI [47]: > 68.4 µM | TGI [48]: > 100 µM | TGI [67]: 30.9 µM | TGI [68]: 28.2 µM and 42.8 µM | GI50 [49]: 19 µM and 8.6 µM | TGI [49]: 39.3 µM and > 63.1 µM | GI50 [50]: 13 µM and 5.2 µM | TGI [50]: 26.2 µM and 11.9 µM | TGI [69]: 29.7 µM | GI50 [51]: 8.04 µM and 3.15 µM | TGI [51]: 15.8 µM and 25.5 µM | TGI [52]: 34 µM and 39.3 µM | TGI [53]: > 100 µM | TGI [54]: 32.1 µM and 34 µM

CC(C)c1ccccc1NC(=O)C(=O)Cc1nc2ccccc2s1
TGI [1]: > 100 µM | TGI [2]: > 100 µM | TGI [3]: > 100 µM | TGI [4]: > 100 µM | TGI [5]: > 100 µM | TGI [6]: > 100 µM | TGI [7]: > 100 µM | TGI [8]: > 100 µM | TGI [9]: > 100 µM | TGI [10]: > 100 µM | TGI [11]: > 100 µM | TGI [12]: > 100 µM | TGI [13]: > 100 µM | TGI [14]: > 100 µM | TGI [15]: > 100 µM | TGI [17]: > 100 µM | TGI [18]: > 100 µM | TGI [19]: > 100 µM | TGI [20]: > 100 µM | TGI [21]: > 100 µM | TGI [60]: > 100 µM | TGI [22]: > 100 µM | TGI [24]: > 100 µM | TGI [25]: > 100 µM | TGI [26]: > 100 µM | TGI [63]: > 100 µM | TGI [27]: > 100 µM | TGI [29]: > 100 µM | TGI [30]: > 100 µM | TGI [64]: > 100 µM | TGI [31]: > 100 µM | TGI [32]: > 100 µM | TGI [33]: > 100 µM | TGI [34]: > 100 µM | TGI [35]: > 100 µM | TGI [36]: > 100 µM | TGI [37]: > 100 µM | TGI [38]: > 100 µM | TGI [39]: > 100 µM | TGI [40]: > 100 µM | TGI [41]: > 100 µM | TGI [42]: > 100 µM | TGI [43]: > 100 µM | TGI [44]: > 100 µM | TGI [45]: > 100 µM | TGI [47]: > 100 µM | TGI [48]: > 100 µM | TGI [68]: > 100 µM | TGI [49]: > 100 µM | TGI [50]: > 100 µM | TGI [52]: > 100 µM | TGI [53]: > 100 µM | TGI [54]: > 100 µM
